Source: paper PMC9916883, “Betaine- and L-Carnitine-Based Ionic Liquids as Solubilising and Stabilising Agents for the Formulation of Antimicrobial Eye Drops Containing Diacerein” (International Journal of Molecular Sciences, 2023)
“Also recorded” adds a separate entry of the source.

Key:
[1] = DIA elimination and degradation kinetics in tear fluid; format: in vivo, New Zealand albino rabbits; settings: one drop (50 μL), 0.27 M IL, n = 10
Protocol: Male New Zealand albino rabbits weighing approximately 2.6–3 Kg, kept in standard housing conditions, were used for in vivo studies. The animals were treated as prescribed in the guidelines of the European Community Council Directive 2010/63. The animal protocol was approved by the Italian Ministry of University and Research (authorisation n. 192/2019-PR). The eye drops were prepared in CB (200 mOsm/kg). […] A suspension of plain DIA (0.34 M) in CB was used as a reference sample (230 mOsm/kg). The samples’ osmolality was checked using a Roebling osmometer (calibrated with NaCl 300 mOsm/kg H2O).
[…] CB was used as blank control. At predefined intervals (i.e., 2, 4, 6, 8, 10, 15, 20, 25, and 30 min from instillation), tear fluid samples were taken from the lower margin strip using 1 µL disposable glass capillaries (Microcaps, Drummond Scientific Co., USA), which were washed with 1 µL and diluted with 100 µL of CB. The diluted samples were analysed by HPLC. […] For each of the three formulations studied, elimination curves were constructed, each determined from a single eye of different rabbits.

S. aureus W4 [2] = experiment: Biofilm inhibition assay (crystal violet); format: cell-based, Staphylococcus aureus; settings: any of the concentrations tested (3.12, 6.25, 12.5 μg/mL)
Protocol: (§1) After overnight growth in LB, cultures of P. aeruginosa ATCC 27853 and S. aureus W4 were diluted 1:100 in LB or in 50% tryptone soy broth (TSB, Oxoid) supplemented with 0.25% glucose (Sigma), respectively. The bacterial suspensions were dispensed into flat-bottomed polystyrene 96-well microplates (Corning Costar, Lowell, MA, USA) in the presence of sub-MIC concentrations of Rhe and DIA (3.12, 6.25, and 12.5 μg/mL). A sample containing 0.8 DMSO % (corresponding to the highest concentration of DMSO tested) was used as a control. The microplates were incubated statically at 37 °C for 24 h, and the biofilm biomass was estimated by CV (Sigma-Aldrich) staining assay, as previously described.

P. aeruginosa ATCC 27853 = experiment: Biofilm inhibition assay (crystal violet); format: cell-based, Pseudomonas aeruginosa; settings: any of the concentrations tested (3.12, 6.25, 12.5 μg/mL)
Protocol: as §1

[3] = Stabilisation of DIA against hydrolysis to Rhe under simulated physiological conditions; format: physicochemical; settings: pH 7.4, 37 °C; for degradation of DIA / DIA degraded: 6 h
Protocol: The stabilising effect of Bet6 and Carn6 on DIA’s hydrolysis was investigated under simulated in vitro conditions. […] After equilibrating for 30 min at 25 °C, the samples were transferred to a thermostatic shaking bath at 37 °C, and their pH was rapidly brought to 7.4 by adding 10 N NaOH. At defined time intervals (30 min, 1 h, 2 h, 3 h, 4 h, 5 h, and 6 h), a 500 µL sampling was performed, and the hydrolysis was blocked by adding 2 µL of 37% HCl, bringing the pH back to 5. The amount of Rhe formed over time was evaluated spectrophotometrically. Degradation of DIA was expressed in mol% of Rhe formation. The stabilising capability was compared to that obtained with HP-β-CD by applying the protocol to DIA/HP-β-CD solutions in CB, with molar ratios of 1:3, 1:5, and 1:10.

[4] = Modified Draize test (ocular irritation); format: in vivo, New Zealand albino rabbits; settings: single eye drop instillation, rabbit; observed 0.5-6 h
Protocol: Male New Zealand albino rabbits weighing approximately 2.6-3 Kg, kept in standard housing conditions, were used for in vivo studies. The animals were treated as prescribed in the guidelines of the European Community Council Directive 2010/63. The animal protocol was approved by the Italian Ministry of University and Research (authorisation n. 192/2019-PR). The eye drops were prepared in CB (200 mOsm/kg). […] (588 mOsm/kg). A suspension of plain DIA (0.34 M) in CB was used as a reference sample (230 mOsm/kg). The samples' osmolality was checked using a Roebling osmometer (calibrated with NaCl 300 mOsm/kg H2O). To assess the irritation of the rabbits' eyes after instillation of the eye drops under study, a modified Draize test was performed, following the procedure previously described in [50]. This irritation test was conducted using a 0 (absence) to 3 (maximum) clinical rating scale for lachrymation, oedema, and conjunctival redness. For each of the samples under study, the test was performed on three rabbits, through a single instillation of the eye drops (50 μL) per rabbit eye, while the untreated contralateral eye was used as a control. […] An overall irritation index (Iirr) was calculated by adding the total clinical evaluation scores for each observation time. A score of 2 or 3 in any category or an Iirr greater than 4 was considered an indicator of clinically significant irritation.

S. aureus W4 [5] = experiment: Killing assay; format: cell-based, Staphylococcus aureus; settings: 3 h incubation in 5% TSB; DIA 0.34 M, ILs 0.27 M
Protocol: To this end, the bacterial strains were grown in TSB until the exponential phase, and approximately 5 × 10^4 CFU/mL-contained in 10 μL-was added to 5 μL of TSB, 35 μL of water, and 50 μL of one of the following solutions corresponding to the eye drop compositions tested in vivo: Bet6 or Carn6 with 0.27 M or 0.34 M DIA, plain DIA (0.34 M) solution, or plain Bet6/plain Carn6, both at 0.27 M. All solutions were prepared in CB. The samples were incubated at 37 °C with shaking for 3 h. A sample containing 0.6% DMSO (corresponding to the highest concentration of DMSO tested) was used as a control. Following incubation, the samples were diluted 10-fold in LB and plated on tryptone soy agar (TSA, Oxoid) to determine the number of CFU. Bactericidal activity was defined as a reduction of at least 3 Log10 in the number of viable bacteria as compared to the inoculum.

CC(=O)Oc1cccc2c1C(=O)c1c(OC(C)=O)cc(C(=O)O)cc1C2=O [DIA, diacerein]
MRT ([1]; male, New Zealand albino, topical, 50 µL (one drop) of 0.34 M DIA, DIA in rabbit tear fluid): 4.55 min | AUC (DIA concentration in tear fluid vs time) ([1]; rabbit tear fluid, 0.34 M DIA): 0.06 ± 0.002 | biofilm formation (CV staining, OD 570 nm) (S. aureus W4 [2]): no significant effects | biofilm formation (CV staining, OD 570 nm), difference vs control (P. aeruginosa ATCC 27853): not statistically significant | degradation of DIA ([3]; 0.018 M Bet6): 39% | DIA degraded ([3]; 0.018 M Carn6 solution): 91% | degradation of DIA ([3]; 0.04 M Bet6): 73% | DIA degraded ([3]; 0.04 M Carn6 solution): 98% | DIA preserved for 6 h ([3]; 0.27 M Bet6 solution (nanoaggregates)): 71% | DIA preserved for 6 h ([3]; 0.35 M Bet6 solution (nanoaggregates)): 85% | DIA not hydrolysed after 6 h ([3]; Carn6 nanoaggregates present (0.27 M)): 26% | DIA not hydrolysed after 6 h ([3]; Carn6 nanoaggregates present (0.35 M)): 34% | ocular irritation signs (conjunctival redness, chemosis/oedema, secretion) [4]: modest redness of the conjunctiva and a slight conjunctival chemosis, but no secretion; also recorded: No redness, secretions, or conjunctival oedema | bactericidal effect (S. aureus W4 [5]): no evident bactericidal effect
